The values that follow are results of earlier work, collected in patent US20080014263A1, “Amorphous eprosartan mesylate and process for the preparation thereof” (Glenmark Pharmaceuticals Limited, priority 2006, published 2008).

Where a name gives a salt, the structure may show the parent alone.

For the series the following is noted: white to off-white free-flowing crystalline powder.

Consider `CCCCc1ncc(/C=C(\Cc2cccs2)C(=O)O)n1Cc1ccc(C(=O)O)cc1` [Eprosartan mesylate, monomethanesulphonate of (E)-2-butyl-1-(p-carboxybenzyl)-α-2-thienylmethylimidazole-5-acrylic acid], for which the solubility in ethanol result (ethanol) was “freely soluble”. In addition, the solubility in water entry (water) was “insoluble”.
